Source: EP1914236A1 (Ortho-McNeil Pharmaceutical, Inc., priority 2002, dated 2003)

Experiments:
[1] = Graded Abdominal Irritant Test (GrAIT); assay type: in vivo; conditions: for % Inhibition: 30 minutes before kaolin (100 mg/kg intraperitoneally), responses counted for 15 minutes, dose not given
Protocol: The Graded Abdominal Irritant Test (GrAIT) is a modification of the methods described by Koster et al. (Koster R., Anderson M and DeBeer E. J. Fed. Proc. 1959, 18, 412). Prior to the test (30 minutes for oral or subcutaneous administration), each animal was administered a known analgesic, a test compound, or vehicle (0.05N HCl) by one of two routes (oral or subcutaneous).
Kaolin (100 mg/kg) was injected intraperitoneally (using a standard 23G needle) at a volume of 10mL/kg of body weight. Following the administration of the chemical agent, the animals were placed in glass bell jars (approximately 15cm in diameter with wood chips on the bottom). […] A contraction of the abdominal musculature and an elongation of the body, which extends through to the hindlimbs, characterize this response. The responses were counted during the 15-minute time period after the injection of the kaolin. A mechanical counter or a personal computer was used to collect the number of counts per animal, and animals were observed no more than 5 at a time.
The mean number of counts (±SEM) for a group of animals receiving a known analgesic or test compound was compared to the mean for the group of animals which received only vehicle pretreatment (Control group). For each dose, % inhibition of the response was calculated. For each test compound, the EDso value was calculated using a log dose regression analysis program (PharmTools software).

[2] = target: T1, CHO-hB2 cell membranes (Homo sapiens, UniProt P30411); assay: [35S]GTPγS Binding Assay in CHO-hB2 Cell Membranes; assay type: biochemical; conditions: for Functional Activity (% Basal): number in parentheses, bradykinin-stimulated [35S]GTPγS binding, test concentration not given; for Functional Activity: word part of the cell, effect on bradykinin-stimulated [35S]GTPγS binding
T1 construct: purchased Receptor Biology, Inc. (Baltimore, MD); host or cells: CHO-hB2 cells (membranes)
T1 sequence (P30411 1-391): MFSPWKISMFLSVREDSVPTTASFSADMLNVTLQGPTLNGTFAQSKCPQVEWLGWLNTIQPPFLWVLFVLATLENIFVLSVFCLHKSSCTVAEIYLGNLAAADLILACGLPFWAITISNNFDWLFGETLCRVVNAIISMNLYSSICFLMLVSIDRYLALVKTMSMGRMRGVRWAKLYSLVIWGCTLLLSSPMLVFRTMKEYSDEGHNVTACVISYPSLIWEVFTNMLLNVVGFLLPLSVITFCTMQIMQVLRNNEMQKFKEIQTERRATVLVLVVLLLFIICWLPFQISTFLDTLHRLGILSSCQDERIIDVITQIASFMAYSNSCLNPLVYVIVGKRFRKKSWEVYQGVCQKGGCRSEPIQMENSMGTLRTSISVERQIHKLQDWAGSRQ
Protocol: CHO-hB2 cell membranes were purchased from Receptor Biology, Inc. (Baltimore,MD). 10 mg/mL of membrane protein was suspended in 10 mM TRIS-HC pH 7.2, 2 mM EDTA, 10% sucrose.
Membranes were added into 15 mL ice cold binding assay buffer. The assay buffer contained 50 mM HEPES, pH 7.6, 5 mM MgCl2, 100 mM NaCl, 1 mM DTT and 1 mM EDTA. The membrane suspension was homogenized twice with a Polytron and centrifuged at 3000 rpm for 10 min. The supernatant was then centrifuged at 18,000 rpm for 20 min. The pellet was saved in a tube and resuspended.
The pellet membranes (40 µg/mL) were preincubated with SPA (scintillation proximity assay) beads (20 mg/mL) at 25C° for 45 min in the assay buffer. The SPA beads (5 mg/mL) coupled with membranes (10 µg/mL) were then incubated with 0.5 nM [^35S]GTPγS in the same HEPES buffer containing 50 µM GDP in total volume of 200 µL. Bradykinin was used to stimulate [^35S]GTPγS binding. Varying concentrations of drugs were incubated with bradykinin to inhibit bradykinin-stimulated [^35S]GTPγS binding. The basal binding was tested in the absence of bradykinin and no specific binding was tested in the present 10 µM unlabeled GTPγS. The radioactivity was quantified on a Packard Top Count, and calculated. % of Basal = (stimulated binding-non specific binding)/(basal binding-non specific binding) × 100. [formula]

[3] = target: T2, human B2 bradykinin receptors (Homo sapiens, UniProt P30411); assay: Bradykinin B2 (BK2) Receptor Binding Assay; conditions: membranes of CHO-K1 cells transfected with human B2 bradykinin receptors; ~0.25 nM [3H]NPC17731; 60 min at 25°C
T2 construct: purchased Receptor Biology, Inc. (Baltimore, MD); host or cells: CHO-K1 cells transfected with the human B2 receptor (membranes)
T2 sequence (P30411 1-391): T1 sequence (P30411 1-391)
Protocol: Cell membranes of CHO-K1 cells transfected with human B2 bradykinin receptors (CH)-hB2) were purchased from Receptor Biology, Inc. (Baltimore,MD).
Samples were harvested on a Brandel Cell Harvester on to Wallac filtermat B sheets (96 sample format), and washed three times with 2 mL cold HEPES-buffer (10 mM, pH 7.5), and dried in a microwave oven.
The data were used to calculate either the % inhibition compared to control binding (when only a single concentration of test compound was evaluated) or a Ki value (when a range of concentrations were tested). Background was subtracted from mean cpm values and % inhibition was calculated as: [(total dpm-test compound dpm)/(total dpm-nonspecific dpm)]x100. Kd and Ki values were calculated using GraphPad PRISM data analysis program.

Compound: Cc1ccc2cccc(OCc3c(C)ccc(N(C)C(=O)CCc4ccc(C(=O)c5ccc(Cl)nc5)n4C)c3C)c2n1 [Compound 88]
- % Inhibition ([1]; po): -24%
- % Inhibition ([1]; sc): 96%
- Functional Activity (% Basal) [2]: 41 % Basal
- Functional Activity [2]: Antagonist
- Ki [3]: 126 nM

Compound: Cc1ccc2cccc(OCc3c(C)ccc(N(C)C(=O)Cc4ccc(C(=O)c5ccc(C#N)nc5)n4C)c3C)c2n1 [Compound 78]
- % Inhibition ([1]; po): 82 po %
- ED50 ([1]; po, log dose regression analysis): 114 µmol/kg
- Functional Activity (% Basal) [2]: 83 % Basal
- Functional Activity [2]: Antagonist
- Ki [3]: 286 nM

Compound: Cc1ccc2cccc(OCc3c(Cl)ccc(N(C)C(=O)Cc4ccc(C(=O)c5ccc(C#N)cc5)n4C)c3Cl)c2n1 [Compound 76]
- % Inhibition ([1]; po): 22%
- % Inhibition ([1]; sc): 100%
- Functional Activity (% Basal) [2]: 79 % Basal
- Functional Activity [2]: Antagonist
- Ki [3]: 41 nM

Compound: CCn1c(CC(=O)N(C)c2ccc(C)c(COc3cccc4ccc(C)nc34)c2C)ccc1C(=O)c1ccc(C#N)cc1 [Compound 7]
- % Inhibition ([1]; po): 26%
- % Inhibition ([1]; sc): 42%
- Ki [3]: 48 nM

Compound: Cc1ccc2cccc(OCc3c(Cl)cc(Cl)c(N(C)C(=O)Cc4ccc(C(=O)c5ccc(Cl)nc5)n4C)c3Cl)c2n1 [Compound 117, 2-[5-(6-Chloro-pyridine-3-carbonyl)-1-methyl-1H-pyrrol-2-yl]-N-methyl-N-[2,4,6-trichloro-3-(2-methyl-quinolin-8-yloxymethyl)-phenyl]-acetamide]
- Functional Activity (% Basal) [2]: 35 % Basal
- Functional Activity [2]: Antagonist
- Ki [3]: 86.4 nM

Compound: Cc1ccc2cccc(OCc3c(Cl)ccc(N(C)C(=O)CCc4ccc(C(=O)c5ccncc5)n4C)c3Cl)c2n1 [Compound 83]
- Functional Activity (% Basal) [2]: 45 % Basal
- Functional Activity [2]: Antagonist
- Ki [3]: 168 nM

Compound: Cc1ccc2cccc(OCc3c(Cl)ccc(N(C)C(=O)Cc4ccc(C(=O)c5ccc(C(=O)N(C)C)cc5)n4C)c3Cl)c2n1 [Compound 62, 4-[5-({[2,4-Dichloro-3-(2-methyl-quinolin-8-yloxymethyl)-phenyl]-methylcarbamoyl}-methyl)-1-methyl-1H-pyrrole-2-carbonyl]-N,N-dimethyl-benzamide]
- Functional Activity (% Basal) [2]: 59 % Basal
- Functional Activity [2]: Antagonist
- Ki [3]: 204 nM

Compound: Cc1ccc2cccc(OCc3c(Cl)ccc(N(C)C(=O)Cc4ccc(C(=O)c5ccc([N+](=O)[O-])cc5)n4C)c3Cl)c2n1 [Compound 63]
- Functional Activity (% Basal) [2]: 33 % Basal
- Functional Activity [2]: Antagonist
- Ki [3]: 178 nM

Compound: Cc1ccc2cccc(OCc3c(Cl)ccc(N(C)C(=O)Cc4ccc(C(=O)c5ccncc5)n4C)c3Cl)c2n1 [Compound 60, N-[2,4-Dichloro-3-(2-methyl-quinolin-8-yloxymethyl)-phenyl]-N-methyl-2-[1-methyl-5-(pyridine-4-carbonyl)-1 H-pyrrol-2-yl]-acetamide]
- % Inhibition ([1]; po): 44po %
- Ki [3]: 400 nM

Compound: CCN(C(=O)Cc1ccc(C(=O)c2ccc(C#N)cc2)n1C)c1ccc(Cl)c(COc2cccc3ccc(C)nc23)c1Cl [Compound 18]
- Functional Activity (% Basal) [2]: 1 % Basal
- Functional Activity [2]: No effect
- Ki [3]: 55 nM

Compound: Cc1ccc2cccc(OCc3c(Cl)ccc(N(C)C(=O)Cc4ccc(C(=O)c5ccc([N+](=O)[O-])c(C)c5)n4C)c3Cl)c2n1 [Compound 65, N-[2,4-Dichloro-3-(2-methyl-quinolin-8-yloxymethyl)-phenyl]-N-methyl-2-[1-methyl-5-(3-methyl-4-nitro-benzoyl)-1H-pyrrol-2-yl]-acetamide]
- Functional Activity (% Basal) [2]: 35 % Basal
- Functional Activity [2]: Antagonist
- Ki [3]: 151 nM

Compound: Cc1ccc2cccc(OCc3c(Cl)ccc(N(C)C(=O)Cc4ccc(C(=O)c5cccs5)n4C)c3Cl)c2n1 [Compound 61]
- Functional Activity (% Basal) [2]: 12 % Basal
- Functional Activity [2]: Weak antagonist
- Ki [3]: 393 nM

Compound: Cc1ccc2cccc(OCc3c(Cl)ccc(N(C)C(=O)Cc4cc(C(=O)c5ccc(C#N)cc5)n(C)c4)c3Cl)c2n1 [Compound 4, 2-[5-(4-Cyano-benzoyl)-1-methyl-1H-pyrrol-3-yl]-N-[2,4-dichloro-3-(2-methyl-quinolin-8-yloxymethyl)-phenyl]-N-methyl-acetamide]
- Functional Activity (% Basal) [2]: 24 % Basal
- Functional Activity [2]: Antagonist
- Ki [3]: 1350 nM

Compound: Cc1ccc2cccc(OCc3c(C)ccc(N(C)C(=O)CCc4ccc(C(=O)c5ccncc5)n4C)c3C)c2n1 [Compound 82]
- Functional Activity (% Basal) [2]: 50 % Basal
- Functional Activity [2]: Antagonist
- Ki [3]: 450 nM

Compound: CCCn1c(CC(=O)N(C)c2ccc(Cl)c(COc3cccc4ccc(C)nc34)c2Cl)ccc1C(=O)c1ccc(C#N)cc1 [Compound 9]
- Functional Activity (% Basal) [2]: 1 % Basal
- Functional Activity [2]: No effect
- Ki [3]: 27 nM

Compound: Cc1ccc2cccc(OCc3c(Cl)ccc(N(C)C(=O)Cc4ccc(C(=O)CN5CCC(c6ccccc6)CC5)n4C)c3Cl)c2n1 [Compound 58, N-[2,4-Dichloro-3-(2-methyl-quinolin-8-yloxymethyl)-phenyl]-N-methyl-2-{1-methyl-5-[2-(4-phenyl-piperidin-1-yl)-acetyl]-1H-pyrrol-2-yl}-acetamide]
- Functional Activity (% Basal) [2]: 1 % Basal
- Functional Activity [2]: No effect
- Ki [3]: 293 nM

Compound: Cc1ccc2cccc(OCc3c(Cl)ccc(N(C)C(=O)Cc4ccc(C(=O)c5ccc(C#N)cc5)n4CC(C)C)c3Cl)c2n1 [Compound 12]
- Functional Activity (% Basal) [2]: 1 % Basal
- Functional Activity [2]: No effect
- Ki [3]: 54 nM

Compound: COc1ccc(C(=O)c2ccc(CC(=O)N(C)c3ccc(Cl)c(COc4cccc5ccc(C)nc45)c3Cl)[nH]2)cc1 [Compound 5]
- Functional Activity (% Basal) [2]: 61 % Basal
- Functional Activity [2]: Antagonist
- Ki [3]: 71 nM

Compound: Cc1ccc2cccc(OCc3c(C)ccc(N(C)C(=O)CCc4ccc(C(=O)c5cccs5)n4C)c3C)c2n1 [Compound 80]
- Functional Activity (% Basal) [2]: 12 % Basal
- Functional Activity [2]: Weak antagonist
- Ki [3]: 141 nM

Compound: Cc1ccc2cccc(OCc3c(Cl)ccc(N(C)C(=O)Cc4ccc(C(=O)c5ccc(C#N)nc5)n4C)c3Cl)c2n1 [Compound 71]
- Functional Activity (% Basal) [2]: 79 % Basal
- Functional Activity [2]: Antagonist
- Ki [3]: 74 nM

Compound: Cc1ccc2cccc(OCc3c(Cl)ccc(N(C)C(=O)Cc4ccc(C(=O)CN5CCC(Cc6ccccc6)CC5)n4C)c3Cl)c2n1 [Compound 59]
- Functional Activity (% Basal) [2]: 1 % Basal
- Functional Activity [2]: No effect
- Ki [3]: 291 nM
